Values joined by “and” are separate entries in the source; they are usually repeats but may differ in a detail not shown here. Equal values may be shown once.
Assays:
[1] = biological target: T1, Retinoic acid receptor alpha (Homo sapiens) (UniProt P10276); experiment: Agonist synergy against RAR alpha was tested along with 3 nM TTNPB; type: functional; settings: Cercopithecidae
T1 sequence (whole entry): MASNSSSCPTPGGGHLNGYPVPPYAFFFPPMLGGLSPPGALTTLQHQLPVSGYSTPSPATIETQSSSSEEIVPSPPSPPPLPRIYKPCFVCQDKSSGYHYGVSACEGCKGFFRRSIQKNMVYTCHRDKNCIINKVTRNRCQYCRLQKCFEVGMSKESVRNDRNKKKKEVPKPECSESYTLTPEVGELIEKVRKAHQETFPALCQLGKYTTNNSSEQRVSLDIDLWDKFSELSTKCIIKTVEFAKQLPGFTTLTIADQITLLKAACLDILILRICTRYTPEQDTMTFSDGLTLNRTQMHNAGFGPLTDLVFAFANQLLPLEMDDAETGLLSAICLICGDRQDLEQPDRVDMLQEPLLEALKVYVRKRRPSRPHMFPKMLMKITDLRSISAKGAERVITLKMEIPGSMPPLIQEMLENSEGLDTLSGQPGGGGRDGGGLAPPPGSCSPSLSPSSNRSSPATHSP

[2] = biological target: T2, Retinoic acid receptor RXR-beta (Homo sapiens, UniProt P28702); experiment: Displacement of [3H]9-cis-RA from RXR beta receptor in CV-1 cells; type: cell-based, Cercopithecidae
T2 sequence (P28702 whole entry): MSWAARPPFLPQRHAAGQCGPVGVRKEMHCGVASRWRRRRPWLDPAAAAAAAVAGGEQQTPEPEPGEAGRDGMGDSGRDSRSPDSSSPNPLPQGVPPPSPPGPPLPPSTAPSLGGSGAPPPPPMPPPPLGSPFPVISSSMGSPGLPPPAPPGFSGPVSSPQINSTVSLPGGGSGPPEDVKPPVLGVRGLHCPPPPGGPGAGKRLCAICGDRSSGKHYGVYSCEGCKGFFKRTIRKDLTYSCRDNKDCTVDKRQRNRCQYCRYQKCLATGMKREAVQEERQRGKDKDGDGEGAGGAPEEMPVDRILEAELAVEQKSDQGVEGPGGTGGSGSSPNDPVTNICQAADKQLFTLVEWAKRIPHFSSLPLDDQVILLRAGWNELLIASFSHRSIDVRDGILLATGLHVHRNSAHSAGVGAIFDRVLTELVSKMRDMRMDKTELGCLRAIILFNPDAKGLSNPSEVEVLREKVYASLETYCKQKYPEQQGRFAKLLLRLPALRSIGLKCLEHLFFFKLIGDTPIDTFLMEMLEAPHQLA

[3] = biological target: T3, Retinoic acid receptor RXR-gamma (Homo sapiens, UniProt P48443); experiment: Binding affinity against RXR gamma receptor using [3H]9-cis-RA as radioligand in CV-1 cells; type: cell-based, Cercopithecidae
T3 sequence (P48443 whole entry): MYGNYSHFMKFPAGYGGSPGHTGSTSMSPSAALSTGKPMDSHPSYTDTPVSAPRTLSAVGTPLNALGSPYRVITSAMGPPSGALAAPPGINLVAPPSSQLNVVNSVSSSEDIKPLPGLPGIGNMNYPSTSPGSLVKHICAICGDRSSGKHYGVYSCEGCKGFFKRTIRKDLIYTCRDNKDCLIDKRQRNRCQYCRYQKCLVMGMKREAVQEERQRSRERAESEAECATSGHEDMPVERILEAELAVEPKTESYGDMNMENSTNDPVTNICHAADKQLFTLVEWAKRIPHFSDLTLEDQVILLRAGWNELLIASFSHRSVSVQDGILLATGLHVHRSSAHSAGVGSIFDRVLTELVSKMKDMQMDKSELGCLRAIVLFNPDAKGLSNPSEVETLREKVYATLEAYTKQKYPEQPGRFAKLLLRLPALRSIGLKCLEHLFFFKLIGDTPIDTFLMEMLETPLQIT

[4] = biological target: T4, Peroxisome proliferator-activated receptor gamma (Homo sapiens, UniProt P37231)
T4 sequence (P37231 whole entry): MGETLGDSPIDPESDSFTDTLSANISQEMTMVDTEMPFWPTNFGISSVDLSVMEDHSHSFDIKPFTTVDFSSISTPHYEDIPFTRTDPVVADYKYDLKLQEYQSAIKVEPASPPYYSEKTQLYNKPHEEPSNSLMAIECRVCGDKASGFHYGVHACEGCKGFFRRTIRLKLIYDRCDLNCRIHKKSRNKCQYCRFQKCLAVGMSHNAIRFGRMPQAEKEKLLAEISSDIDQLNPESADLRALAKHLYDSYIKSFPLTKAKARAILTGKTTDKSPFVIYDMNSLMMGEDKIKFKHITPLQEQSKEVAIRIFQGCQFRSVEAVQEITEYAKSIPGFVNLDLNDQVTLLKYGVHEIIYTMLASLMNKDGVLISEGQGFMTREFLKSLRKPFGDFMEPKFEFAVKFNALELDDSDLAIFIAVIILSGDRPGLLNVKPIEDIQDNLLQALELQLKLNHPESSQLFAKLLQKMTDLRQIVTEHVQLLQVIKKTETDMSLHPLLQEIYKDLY
Description: In vitro agonist efficacy against PPAR gamma along with 100 nM BRL-49653

[5] = biological target: T4, Peroxisome proliferator-activated receptor gamma; remark: listed apart in the source
Description: In vitro agonistic activity against PPAR gamma along with 100 nM BRL-49653

[6] = biological target: T5, Retinoic acid receptor alpha (Homo sapiens, UniProt P10276); experiment: Binding affinity against RAR alpha receptor using [3H]ATRA as radioligand in CV-1 cells; type: cell-based, Cercopithecidae
T5 sequence (P10276 whole entry): T1 sequence (whole entry)

[7] = biological target: T6, Retinoic acid receptor beta (Homo sapiens, UniProt P10826); experiment: Binding affinity against RAR beta receptor using [3H]ATRA as radioligand in CV-1 cells; type: cell-based, Cercopithecidae
T6 sequence (P10826 whole entry): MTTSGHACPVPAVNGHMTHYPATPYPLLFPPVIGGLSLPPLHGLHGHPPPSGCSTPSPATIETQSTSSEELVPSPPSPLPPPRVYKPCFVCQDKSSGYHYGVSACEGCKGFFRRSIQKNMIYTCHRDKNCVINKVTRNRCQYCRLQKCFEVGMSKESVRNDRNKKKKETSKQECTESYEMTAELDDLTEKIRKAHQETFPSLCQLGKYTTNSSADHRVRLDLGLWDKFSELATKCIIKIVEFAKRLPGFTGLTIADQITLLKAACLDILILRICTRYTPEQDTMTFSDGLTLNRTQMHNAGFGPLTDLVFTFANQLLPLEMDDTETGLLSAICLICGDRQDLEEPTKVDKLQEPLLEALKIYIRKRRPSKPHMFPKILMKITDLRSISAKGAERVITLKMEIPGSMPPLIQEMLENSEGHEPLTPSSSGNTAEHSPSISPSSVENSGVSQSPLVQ

[8] = biological target: T7, Retinoic acid receptor RXR-alpha (Homo sapiens, UniProt P19793); experiment: biochemical
T7 sequence (P19793 whole entry): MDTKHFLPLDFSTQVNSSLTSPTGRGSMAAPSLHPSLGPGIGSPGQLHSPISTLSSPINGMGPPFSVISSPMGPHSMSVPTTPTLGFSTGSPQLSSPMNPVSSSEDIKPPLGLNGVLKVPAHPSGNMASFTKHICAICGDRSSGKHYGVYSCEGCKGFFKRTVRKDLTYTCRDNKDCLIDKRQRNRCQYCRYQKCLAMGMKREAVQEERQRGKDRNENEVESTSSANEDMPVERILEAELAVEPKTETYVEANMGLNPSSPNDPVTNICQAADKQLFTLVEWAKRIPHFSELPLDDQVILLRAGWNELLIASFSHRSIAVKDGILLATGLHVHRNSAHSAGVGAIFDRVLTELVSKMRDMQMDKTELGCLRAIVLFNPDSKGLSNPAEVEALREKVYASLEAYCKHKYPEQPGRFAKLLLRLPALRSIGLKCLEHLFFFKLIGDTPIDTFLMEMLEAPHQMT
Description: Binding affinity against RXR alpha receptor using [3H]9-cis-RA as radioligand in CV-1 cells

[9] = biological target: T7, Retinoic acid receptor RXR-alpha; experiment: In vitro antagonist activity against RXR alpha in CV-1 cells; type: functional, cell-based, Cercopithecidae
[10] = biological target: T8, Retinoic acid receptor gamma (Homo sapiens, UniProt P13631); experiment: Binding affinity against RAR gamma receptor using [3H]ATRA as radioligand in CV-1 cells; type: cell-based, Cercopithecidae
T8 sequence (P13631 whole entry): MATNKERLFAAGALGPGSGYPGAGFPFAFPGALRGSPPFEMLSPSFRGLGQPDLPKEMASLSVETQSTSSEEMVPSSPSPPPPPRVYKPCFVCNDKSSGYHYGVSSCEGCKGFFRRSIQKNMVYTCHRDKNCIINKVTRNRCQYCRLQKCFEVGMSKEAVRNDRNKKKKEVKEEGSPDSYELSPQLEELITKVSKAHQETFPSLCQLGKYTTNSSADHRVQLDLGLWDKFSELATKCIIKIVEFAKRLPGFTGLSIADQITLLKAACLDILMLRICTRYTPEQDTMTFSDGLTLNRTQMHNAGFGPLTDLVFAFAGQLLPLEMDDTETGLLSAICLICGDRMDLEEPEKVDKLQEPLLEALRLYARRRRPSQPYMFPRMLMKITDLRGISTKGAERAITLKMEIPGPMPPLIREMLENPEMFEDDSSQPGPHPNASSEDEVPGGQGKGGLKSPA

[11] = Tmax value in IRC mice; type: ADME, organism-based; settings: mouse, in vivo
[12] = Area under curve at 0-8 hr in IRC mice after peroral administration; type: ADME, organism-based; parameters: time < 8 hr, route oral; settings: mouse, in vivo, po
[13] = Cmax value in IRC mice; type: ADME, organism-based; settings: mouse, in vivo

Row | Compound | Synergy [1] [nM] | Ki [2] [nM] | Ki [3] [nM] | EC50 [4] [nM] | EC50 [5] [nM] | Ki [6] [nM] | Ki [7] [nM] | Ki [8] [nM] | IC50 [9] [nM] | Ki [10] [nM] | Tmax [11] [h] | AUC(0-t) at 8 h [12] [ng·h/mL] | Cmax [13]
1 | Cc1cc2c(cc1C1(c3ccc(C(=O)O)cn3)CC1)C(C)(C)CCC2(C)C | 6.9 | 75 | 12 | – | – | – | – | – | – | – | – | – | –
2 | CC(/C=C/[C@@H]1C[C@]1(C)c1ccc2c(c1)C(C)(C)CCC2(C)C)=C\C(=O)O [IRX-4204] | 1.9 | – | – | 54 | 8.6 | – | – | – | – | – | – | – | –
3 | C/C(=C/C=C/C(C)=C/C(=O)O)c1cc(-c2cc(F)cc(F)c2)cc(C(C)C)c1OCC(F)F | 0.8 | 2.4 | 2.8 | 40 | 2.7 | > 10000 | 1960 | 2.6 | 4.6 | > 10000 | – | – | –
4 | CCCCOc1c(\C(C)=C/C=C/C(C)=C/C(=O)O)cc(C(F)(F)C(F)(F)F)cc1C(C)C | 1.2 | 8.2 | 45.7 | 71 | 7.4 | 2750 | 2270 | 21.4 | 4 | > 10000 | – | – | –
5 | C/C(=C/C=C/C(C)=C/C(=O)O)c1cc(C(C)(C)C)cc(C(C)(C)C)c1OCC(F)F | – | 4 | 84 | – | – | 54 | 9510 | – | – | > 9510 | 1 | 3800 | 760 ng/mL and 1.81 µM
6 | C/C(=C/C=C/C(C)=C/C(=O)O)c1cc(C(C)C)cc(-c2ccccc2)c1OCC(F)F | 1 | 12.3 | 22.5 | 78 | 16.3 | 4660 | 2610 | 6.1 | 57.9 | > 10000 | – | – | –
7 | CC(/C=C/C(F)=C(/C)c1cc(C(C)(C)C)cc(C(C)(C)C)c1OCC(F)(F)F)=C\C(=O)O | 1.5 | 15.5 | 12.4 | 30 | 12.2 | 4660 | 6010 | 4.1 | 7.2 | > 10000 | – | – | –

Reference: ChEMBL document CHEMBL1136440, “Design and synthesis of novel RXR-selective modulators with improved pharmacological profile” (Bioorg Med Chem Lett, 2003)
